Assay results: article PMC7395068, “The evolution of strategies to minimise the risk of human drug-induced liver injury (DILI) in drug discovery and development” (Archives of Toxicology, 2020)
Where two headings read alike, the source gives them in different places. Each block holds one compound with its values, some of them ahead of it.

Tests used:
[1] = test system: THLE-Null and THLE-3A4 cells; conditions: In vitro Assay; ref Gustafsson 2014; cited from earlier work
[2] = test system: isolated mouse liver mitochondria; conditions: In vitro Assay; ref Porceddu 2012; cited from earlier work
[3] = plasma free fraction; cited from earlier work
[4] = test system: hLiMTs; assay: Combined HCI (HCS) and cellular ATP 3D assay in hLiMTs; conditions: for AC50 / minimal effective concentration: Homo sapiens; for DILI prediction hLiMTs (HCS-MEC): Microtissue model structural based (HCI), combined HCS and ATP, MEC < 25 × Cmax.tot cut-off; for hLiMTs <25x Avg Cmax ATP / hLiMTs <25x Avg Cmax HCS / hLiMTs <25x Avg Cmax All: cut-off <25x Avg Cmax; for hLiMTs <25x Avg Cmax All: all endpoints (ATP and HCS); for hLiMTs Cmax max All: Cmax max used; for hLiMTs Cmax min All: Cmax min used
[5] = test system: HepaRG spheroids; assay: Combined HCI (HCS) and cellular ATP 3D assay in HepaRG spheroids; conditions: for HepaRG <25x Avg Cmax ATP / HepaRG <25x Avg Cmax HCS / HepaRG <25x Avg Cmax All: cut-off <25x Avg Cmax; for HepaRG <25x Avg Cmax All: all endpoints (ATP and HCS); for HepaRG Cmax max All: Cmax max used; for HepaRG Cmax min All: Cmax min used; for AC50 / minimal effective concentration: Homo sapiens; for DILI prediction HepaRG spheroids (HCS-MEC): Microtissue model structural based (HCI), combined HCS and ATP, MEC < 25 × Cmax.tot cut-off
[6] = Plasma free fraction (fu) and unbound Cmax (Cmax,u); type: in vitro ADME, human; conditions: unbound plasma Cmax
[7] = test system: HepG2 C3A spheroid, BSEP, Glu/Gal in HepG2 cells, bioactivation; conditions: cited from earlier work; for Bayesian Machine Learning DILI prediction, Williams (2019): Bayesian modeling, ref Williams et al. 2019; for Bayesian Machine Learning: In vitro Assay, ref Williams 2019
[8] = test system: human hepatocytes; conditions: cited from earlier work
[9] = test system: HepG2 cells, primary human hepatocytes; conditions: In vitro Assay; ref Garside 2014; cited from earlier work
[10] = test system: PHH spheroids; conditions: cited from earlier work; for hLiMTs ATP <20 x Cmax: In vitro Assay, ref Vorrink 2018
[11] = read-out: Human plasma Cmax; total plasma Cmax.tot, median of 9 literature references; cited from earlier work
[12] = test system: HepG2 cells; conditions: cited from earlier work
[13] = test system: hLiMTs; conditions: cited from earlier work
[14] = test system: HepG2 cells; conditions: cited from earlier work; remark: listed apart in the source
[15] = cited from earlier work
[16] = test system: PHH; conditions: cited from earlier work
[17] = test system: rBsep; conditions: In vitro Assay; ref Dawson 2012; cited from earlier work
[18] = In vitro Assay, ref Persson 2013
[19] = In vitro Assay, ref Proctor 2017

Compound: COc1ccc2c(c1)c(CC(=O)O)c(C)n2C(=O)c1ccc(Cl)cc1 [indomethacin]
- THLE-Null [1]: -VE
- in vitro data EC2<=1x Cmax [2]: +VE
- fu [3]: 0.010
- AC50 ([4]; read-out: ATP endpoint AC50): 9.29 µM
- minimal effective concentration ([4]; read-out: ATP endpoint MEC): 4.54 µM
- AC50 ([4]; read-out: HCS endpoint AC50): 672 µM
- minimal effective concentration ([4]; read-out: HCS endpoint MEC): 95.2 µM
- DILI prediction hLiMTs (HCS-MEC) [4]: +VE (MEC < 25 × Cmax.tot cut-off)
- hLiMTs <25x Avg Cmax ATP ([4]; hLiMTs, ATP endpoint): +ve
- hLiMTs <25x Avg Cmax HCS ([4]; hLiMTs, HCS endpoints): +ve
- hLiMTs <25x Avg Cmax All ([4]; hLiMTs): +ve
- hLiMTs Cmax max All ([4]; hLiMTs, all endpoints): +ve
- hLiMTs Cmax min All ([4]; hLiMTs, all endpoints): +ve
- HepaRG <25x Avg Cmax ATP ([5]; HepaRG, ATP endpoint): +ve
- HepaRG <25x Avg Cmax HCS ([5]; HepaRG, HCS endpoints): +ve
- HepaRG <25x Avg Cmax All ([5]; HepaRG): +ve
- HepaRG Cmax max All ([5]; HepaRG, all endpoints): +ve
- HepaRG Cmax min All ([5]; HepaRG, all endpoints): +ve
- AC50 ([5]; HepaRG, read-out: ATP endpoint AC50): 94.2 µM
- minimal effective concentration ([5]; HepaRG, read-out: ATP endpoint MEC): 79.2 µM
- AC50 ([5]; HepaRG, read-out: HCS endpoint AC50): 215 µM
- minimal effective concentration ([5]; HepaRG, read-out: HCS endpoint MEC): 23.8 µM
- DILI prediction HepaRG spheroids (HCS-MEC) [5]: +VE (MEC < 25 × Cmax.tot cut-off)
- Human plasma Cmax,u [6]: 84 nM
- Bayesian Machine Learning DILI prediction, Williams (2019) [7]: +VE
- Bayesian Machine Learning [7]: +VE
- Structural based (HCI) ([8]; In vitro Assay, ref Xu 2008): -VE
- DILI in vitro assay prediction, Xu (2008) ([8]; Structural based (HCI), human hepatocytes, ref Xu et al. 2008): -VE
- Cluster 1-6 +VE Assay [9]: -VE
- hLiMTs ATP <20 x Cmax [10]: +VE (IC20 < 20 × Cmax.tot cut-off)
- Cmax [11]: 8380 nM

- hLiMTs <25x Avg Cmax ATP ([4]; hLiMTs, ATP endpoint): -ve
- hLiMTs <100x Avg Cmaxu ATP ([4]; hLiMTs, ATP endpoint, cut-off <100x Avg Cmaxu): -ve
- hLiMTs <25x Avg Cmax HCS ([4]; hLiMTs, HCS endpoints): -ve
- hLiMTs <100x Avg Cmaxu HCS ([4]; hLiMTs, HCS endpoints, cut-off <100x Avg Cmaxu): -ve
- hLiMTs <25x Avg Cmax All ([4]; hLiMTs): -ve
- hLiMTs Cmax max All ([4]; hLiMTs, all endpoints): -ve
- hLiMTs Cmax min All ([4]; hLiMTs, all endpoints): -ve
- hLiMTs <10 uM All ([4]; hLiMTs, all endpoints, cut-off <10 uM): -ve
- hLiMTs <100x Avg Cmaxu All ([4]; hLiMTs, all endpoints, cut-off <100x Avg Cmaxu): -ve
- HepaRG <25x Avg Cmax ATP ([5]; HepaRG, ATP endpoint): -ve
- HepaRG <100x Avg Cmaxu ATP ([5]; HepaRG, ATP endpoint, cut-off <100x Avg Cmaxu): -ve
- HepaRG <25x Avg Cmax HCS ([5]; HepaRG, HCS endpoints): -ve
- HepaRG <100x Avg Cmaxu HCS ([5]; HepaRG, HCS endpoints, cut-off <100x Avg Cmaxu): -ve
- HepaRG <25x Avg Cmax All ([5]; HepaRG): -ve
- HepaRG Cmax max All ([5]; HepaRG, all endpoints): -ve
- HepaRG Cmax min All ([5]; HepaRG, all endpoints): -ve
- HepaRG <10 uM All ([5]; HepaRG, all endpoints, cut-off <10 uM): -ve
- HepaRG <100x Avg Cmaxu All ([5]; HepaRG, all endpoints, cut-off <100x Avg Cmaxu): -ve
- Human plasma Cmax,u [6]: 237 nM
Compound: C#CCN(C)Cc1ccccc1 [pargyline]
- THLE-Null [1]: -VE
- THLE-Null/3A4 [1]: -VE
- Cluser analysis [12, 18]: -VE
- Structural based (HCI) [12, 18]: -VE
- DILI in vitro assay prediction, Persson (2013) ([12]; Structural based (HCI), HepG2, ref Persson et al. 2013): -VE
- in vitro data EC2<=1x Cmax [2]: -VE
- in vitro data EC20<=2uM [2]: -VE
- fu [3]: 0.290
- DILI prediction hLiMTs (HCS-MEC) [4]: -VE
- DILI prediction HepaRG spheroids (HCS-MEC) [5]: -VE
- hLiMTs ATP <100uM [13, 19]: -VE
- hLiMTs/100xCmax, Proctor (2017) ([13]; hLiMTs, ATP, IC50 < 100 × Cmax.tot, ref Proctor et al. 2017): -VE
- hLiMTs/100uM, Proctor (2017) ([13]; hLiMTs, ATP, IC50 threshold 100 µM, ref Proctor et al. 2017): -VE
- Bayesian Machine Learning DILI prediction, Williams (2019) [7]: -VE
- Bayesian Machine Learning [7]: -VE
- Structural based (HCI) ([14]; In vitro Assay, ref O'Brien 2006): -VE
- DILI in vitro assay prediction, O'Brien (2006) ([14]; Structural based (HCI), HepG2, ref O'Brien et al. 2006): -VE
- Assigned DILI category ([15]; Chen et al. 2016 or literature alignment, ref Chen et al. 2016): 1
- In vivo DILI ([15]; ref Dawson 2012): -VE
- In vivo DILI ([15]; ref Garside 2014): -VE
- In vivo DILI ([15]; ref Gustafsson 2014): -VE
- In vivo DILI ([15]; ref O'Brien 2006): -VE
- In vivo DILI ([15]; ref Persson 2013): -VE
- In vivo DILI ([15]; ref Porceddu 2012): -VE
- In vivo DILI ([15]; ref Proctor 2017): -VE
- In vivo DILI ([15]; ref Vorrink 2018): -VE
- In vivo DILI ([15]; ref Williams 2019): -VE
- Cluster 1-6 +VE Assay [9]: +VE
- PHH/100xCmax, Proctor (2017) ([16]; 2D PHH, ATP, IC50 < 100 × Cmax.tot, ref Proctor et al. 2017): -VE
- PHH/100uM, Proctor (2017) ([16]; 2D PHH, ATP, IC50 threshold 100 µM, ref Proctor et al. 2017): -VE
- PHH ATP <100uM [16, 19]: -VE
- hLiMTs ATP <20 x Cmax [10]: -VE
- DILI in vitro assay prediction, Vorrink (2018) ([10]; PHH spheroids, ATP, 14 days, IC20 < 20 × Cmax.tot, ref Vorrink et al. 2018): -VE
- Inhibition of rBsep cutoff<1& cmax u>.2 [17]: -VE
- Inhibition of rBsep cutoff<3 [17]: -VE
- Cmax [11]: 819 nM
